Results on 11 compounds are retold here after ChEMBL document CHEMBL1201862, “PubChem BioAssay data set” (2004).

Test in all cases: DTP human tumour cell line panel, 48 h
For assay [1], the system named is HL-60.
Assay [2] has as its system HCT-15.
The test system of assay [3] is DU-145.
The subject of assay [4] is MDA-MB-231.
The subject of assay [5] is UACC-62.
For assay [6], the system named is SW-620.
The test system of assay [7] is OVCAR-3.
Assay [8] relates to MOLT-4.
For assay [9], the system named is BT-549.
In assay [10] the test system is SF-268.
Assay [11] deals with SNB-19.
In assay [12] the test system is CCRF-CEM.
The test system of assay [13] is IGROV-1.
The test system of assay [14] is EKVX.
Assay [15] relates to COLO 205.
Assay [16] deals with HOP-92.
The test system of assay [17] is SN12C.
The subject of assay [18] is 786-0.
Assay [19] relates to HT-29.
Assay [20] relates to RPMI-8226.

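Results reflect a 48-hour exposure of cells in 96-well plates to compound at five concentrations. Abbreviation: GI50, concentration required for 50% inhibition of growth.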 Activity calls are given as the source filed them. Rule as the data show it: active = GI50 up to about 1.1 µM and inactive = higher.

Broadly, the GI50 is the concentration that inhibits growth by half. Consider `CC1=CC(C/C(C)=C/COc2ccc3ccc(=O)oc3c2)OC1=O` (stereo unspecified), for which the GI50 is 59.4 µM (inactive) in assay [1]; 95.9 µM in [2]; > 100 µM (inactive) in assay [3]; 5.66 µM (inactive) in assay [4]; > 100 µM (inactive) in assay [5]; > 100 µM (inactive) in assay [6]. The GI50 is > 100 µM (inactive) in [7]; 49.8 µM (inactive) in [8]; 76.2 µM (inactive) in assay [9]; > 100 µM (inactive) in [10]; > 100 µM (inactive) in assay [11]; > 100 µM (inactive) in assay [12]. The GI50 in [13], in assay [14], in assay [15], in assay [16], in assay [17] and in [18] was > 100 µM (inactive) throughout. Besides, in assay [19], the GI50 was > 100 µM (inactive).

On to `Oc1ccc(-c2nc(-c3cccnc3)c(-c3ccc(F)cc3)[nH]2)cc1`, for which the GI50 in [1] is 15.8 µM (inactive); in assay [2], 22.7 µM; in [3], 24 µM (inactive); in assay [4], 18.9 µM (inactive); in assay [5] it was 16 µM (inactive); in assay [6], 17.8 µM (inactive). The GI50 in [7] is 16.7 µM (inactive); in assay [8] it was 10 µM (inactive); in assay [9] it was 16.6 µM (inactive); in assay [20], 10.2 µM (inactive); in [10], 22.5 µM (inactive); in assay [11], 25.2 µM (inactive). Moreover, the GI50 is 10.7 µM (inactive) in assay [12]; 17.5 µM (inactive) in assay [13]; 19.3 µM (inactive) in [14]; 19.5 µM (inactive) in assay [15]; 23.9 µM (inactive) in [17]; 22.9 µM (inactive) in assay [18]. The GI50 in assay [19] is 18.1 µM (inactive).

For the compound `CCc1c(CNc2ccc(C(=O)NC(CC(=O)O)C(=O)O)cc2)ccc2nc(N)nc(N)c12` (stereo unspecified), the GI50 in assay [1] was < 0.0316 µM (active); in [2], under 0.0164 µM; in [3], 0.0125 µM (active); in assay [4], > 100 µM (inactive); in assay [5] it was < 0.0177 µM (active); in assay [6], < 0.0138 µM (active). In addition, the GI50 in assay [7] was 10.1 µM (inactive); in assay [8], < 0.0182 µM (active); in [9], 25.4 µM (inactive); in assay [10] it was < 0.0198 µM (active); in assay [11], 2.39 µM (inactive); in assay [12], < 0.0128 µM (active). Besides, the GI50 in assay [13] is < 0.0177 µM (active); in [14] it was > 54.6 µM (inactive); in [15], 16.7 µM (inactive); in assay [16] it was 6.44 µM (inactive); in assay [17], < 0.0288 µM (active); in [18], < 0.01 µM (active). Besides, the GI50 in [19] is < 0.0178 µM (active).

`CCOC(=O)c1cc(C2CCN(c3ccccc3)C2=O)c(C(=O)/C=C(/C)N)[nH]1` (stereo unspecified): the GI50 in assay [1] is > 100 µM (inactive); in assay [2], over 100 µM; in assay [3], 54.5 µM (inactive); in assay [4], 56.4 µM (inactive); in assay [5] it was 16.2 µM (inactive); in [6] it was 45.8 µM (inactive). Besides, the GI50 in [7] is 39.6 µM (inactive); in assay [8], 39.6 µM (inactive); in assay [9], > 100 µM (inactive); in assay [20] it was > 100 µM (inactive); in assay [10], 30.2 µM (inactive); in assay [11], 21.3 µM (inactive). Also, the GI50 in [12] is > 100 µM (inactive); in assay [13] it was 33.7 µM (inactive); in [14], 23.6 µM (inactive); in assay [15], > 100 µM (inactive); in [17], 21.8 µM (inactive); in assay [18], 10.2 µM (inactive). Besides, the GI50 in assay [19] was 12.9 µM (inactive).

As to `O=C1/C(=C/c2ccccc2S)N=C(c2ccccc2)N1c1ccc2c(c1)Sc1cc(N3C(=O)/C(=C/c4ccccc4S)N=C3c3ccccc3)ccc1N2`, the 50% growth inhibitory concentration (GI50) in [2] is 31.6 µM; in [3] it was 19.2 µM (inactive); in assay [4] it was 28.4 µM (inactive); in assay [5], 20.1 µM (inactive); in assay [6] it was 19.8 µM (inactive); in assay [7], 18.8 µM (inactive). For the same compound, the GI50 in [8] is 19.6 µM (inactive); in assay [9], 26.7 µM (inactive); in assay [20] it was 19 µM (inactive); in [10], 19.5 µM (inactive); in assay [11] it was 16.7 µM (inactive); in [12], 15.2 µM (inactive). The GI50 in assay [13] was 15.7 µM (inactive); in [14], 20.7 µM (inactive); in assay [15] it was 31.4 µM (inactive); in assay [16] it was 14.9 µM (inactive); in [17], 19.2 µM (inactive); in assay [18], 22.9 µM (inactive). In addition, the GI50 in [19] is 34.4 µM (inactive).

For `COc1ccc2c(c1)-c1[nH]c3ccc(OC)cc3c1CC2`, the 50% growth inhibitory concentration (GI50) in [2] is 10.6 µM; in assay [3] it was 17.1 µM (inactive); in assay [4] it was 17.3 µM (inactive); in assay [5], 15.1 µM (inactive); in assay [6], 22.4 µM (inactive); in assay [7] it was 17.6 µM (inactive). Besides, the GI50 in [8] is 11 µM (inactive); in assay [9] it was 17.7 µM (inactive); in assay [20], 15.6 µM (inactive); in assay [10], 14.1 µM (inactive); in [11], 14.8 µM (inactive); in assay [12], 14.3 µM (inactive). For the same compound, the GI50 is 13.6 µM (inactive) in assay [13]; 7.28 µM (inactive) in assay [14]; 18 µM (inactive) in [15]; 19.2 µM (inactive) in assay [16]; 14.8 µM (inactive) in [17]; 17.5 µM (inactive) in assay [18]. Besides, the GI50 in assay [19] is 12.3 µM (inactive).

With `NN/C(=N\c1ccc(Cl)cc1)NS(=O)(=O)c1ccc(S(=O)(=O)c2ccccc2)s1`, the GI50 in assay [1] is 24.2 µM (inactive); in assay [2] it was 22 µM; in [3] it was 21.8 µM (inactive); in [4], 33.3 µM (inactive); in [5], 7.21 µM (inactive); in assay [6] it was 38.6 µM (inactive). The GI50 in assay [7] is 20.6 µM (inactive); in assay [8] it was 9.16 µM (inactive); in assay [9], 26.4 µM (inactive); in [20] it was 21.2 µM (inactive); in assay [11], 38.3 µM (inactive); in assay [13], 19 µM (inactive). Also, the GI50 in [14] is 11 µM (inactive); in [15], 17 µM (inactive); in [16], 18.6 µM (inactive); in assay [17] it was 22.6 µM (inactive); in [18], 21.4 µM (inactive); in assay [19] it was 18.6 µM (inactive).

Consider `COc1ccccc1N1C(=O)/C(=C\c2cccc(Oc3ccccc3)c2)SC1c1ccccc1` (stereo unspecified), for which the GI50 in assay [1] was < 0.01 µM (active); in assay [2], 47.2 µM; in assay [3], 57.5 µM (inactive); in assay [4], > 100 µM (inactive); in assay [5] it was 5.75 µM (inactive); in assay [6], 17.8 µM (inactive). For the same compound, the GI50 in assay [7] is 27.7 µM (inactive); in assay [8] it was 31 µM (inactive); in assay [9], 29.8 µM (inactive); in assay [20] it was 24.6 µM (inactive); in assay [10], 38 µM (inactive); in assay [11], 31 µM (inactive). Besides, the GI50 is 21.1 µM (inactive) in assay [13]; 15.9 µM (inactive) in assay [14]; 15.3 µM (inactive) in assay [15]; 21.1 µM (inactive) in assay [16]; 30.2 µM (inactive) in [17]; 39.2 µM (inactive) in assay [18]. Further, the GI50 in [19] is 32.4 µM (inactive).

For `COc1cc2c(cc1OC)C(=O)C1(C2)[C@H](c2ccccc2)C2C(=O)c3cc(OC)c(OC)cc3C2[C@H]1c1ccccc1` (stereo partly specified), the GI50 in assay [1] was > 100 µM (inactive); in assay [2] it was over 100 µM; in assay [3] it was > 100 µM (inactive); in assay [4] it was > 100 µM (inactive); in assay [5], > 100 µM (inactive); in [6] it was > 100 µM (inactive). The GI50 in [7], in assay [8], in assay [9], in assay [20], in assay [10] and in [11] was > 100 µM (inactive) in each case. The GI50 in assay [12], in assay [13], in assay [14], in [15], in assay [17] and in [18] was > 100 µM (inactive) throughout. In addition, the GI50 in [19] was > 100 µM (inactive).

On to `CCC(CN(C)C)C(=O)c1ccco1` (stereo unspecified), for which the GI50 in assay [2] is over 100 µM; in assay [3] it was > 100 µM (inactive); in [4] it was > 100 µM (inactive); in assay [5], > 100 µM (inactive); in assay [6] it was > 100 µM (inactive); in assay [7] it was > 100 µM (inactive). Also, the GI50 is 22.3 µM (inactive) in [8]; > 100 µM (inactive) in [9]; 68.5 µM (inactive) in [20]; 54.8 µM (inactive) in [10]; > 100 µM (inactive) in assay [11]; > 100 µM (inactive) in [13]. The GI50 in assay [14] is > 100 µM (inactive); in assay [16], 23 µM (inactive); in assay [17], > 100 µM (inactive); in assay [18], > 100 µM (inactive); in assay [19], > 100 µM (inactive).

For the compound `O=C(O)CC(Sc1ccccc1)c1ccccc1` (stereo unspecified), the GI50 in assay [1] is > 100 µM (inactive); in [2], over 100 µM; in [3], > 100 µM (inactive); in assay [4], > 100 µM (inactive); in assay [5] it was > 100 µM (inactive); in [6], > 100 µM (inactive). Also, the GI50 in assay [7], in assay [8], in assay [9], in assay [20], in assay [10] and in assay [11] was > 100 µM (inactive) in each case. The GI50 in [13], in assay [14], in [15], in [16], in assay [17] and in assay [18] was > 100 µM (inactive) throughout. In addition, the GI50 in [19] was > 100 µM (inactive).
